Tested on: blood brain barrier (BBB); brain, cerebellum
Assay: Biodistribution of [18F]-AuNP in rats by small animal micro-PET
Format: in vivo, SD (Sprague-Dawley) rats
Settings: healthy rats, intravenous injection, micro-PET brain scan
Method: To evaluate the bio-distribution of the AuNPs, [^18F] SiFA-AuNP (12 MBq) were injected into healthy rats (n=3) and evaluated by micro-PET. Representative body and brain scan images of a micro-PET scan following intravenous injection of a solution of [^18F]-SiFA-AuNP are illustrated in FIG. 8. Radioactivity was found in the kidney, liver and spleen.
The time-activity curves obtained from the PET images depicting the radioactivity uptake in the cerebellum and the brain (n=3), using bone radioactivity as a region of reference, are illustrated in FIG. 9 These curves illustrate that AuNPs start to accumulate in the cerebellum and brain at 25-120 min. Ex vivo biodistribution studies were also carried out to confirm the bio-distribution data of [^18F]-SiFA-AuNP in different organs 2 h following injection as obtained by micro-PET. The biodistribution data is illustrated in FIG. 10 and is expressed as the percentage of injected dose for each gram of tissue (% ID/g). […]
Biodistribution of [^18F]-AuNP in Rats by small animal PET: SD (Sprague-Dawley) Rats for in vivo PET studies were housed in a 12 h light/dark cycle at 21° C. with access to food and water ad libitum. […] Respiration rate, heart rate and body temperature were monitored throughout the scan (Biopac sytems MP150, Goleta, Calif., USA). […] The PET images were analyzed using ASIPRO software (Concorde Microsystems). […]

SMILES: CC(C)(C)[Si](F)(c1ccc(S)cc1)C(C)(C)C [[^18F]-SiFA-SH, ^18F-labeled 4-(di-tert-butylfluorosilanyl)benzenethiol]
- crossing of the blood brain barrier (BBB): does not cross the BBB

— patent US20140186263A1, “MALEIMIDE-FUNC[…] NANOPARTICLES” (THE ROYAL INSTITUTION FOR THE ADVANCEMENT OF …, priority 2011, published 2014)
